Experimental data reported in US6562851B2, “Substituted bicyclic compounds” (Aventis Pharma Limited, priority 1999, dated 2003).

With `Cc1ccccc1Nc1nc2cc(CC(=O)Nc3ccc(C(CC(=O)O)NC(=O)CCCC(=O)O)cc3)ccc2o1` (stereo not shown) [Example 4, 4-(2-Carboxy-1-{4-[2-(2-o-tolylamino-benzoxazol-5-yl)-acetylamino]-phenyl}-ethylcarbamoyl)-butyric Acid] the melting point was 255.6 to 257.1 °C.
